Values quoted from earlier work, collected in PubChem BioAssay AID1259409 (Chemical Carcinogenesis Research Information System (CCRIS), 2018).

System: rodent chemically induced tumor inhibition, incidence and multiplicity
Assay: CCRIS tumor inhibitor studies
Conditions: Carcinogen: PHENACETIN, 62-44-2, N-BUTYL-N-(4-HYDROXYBUTYL)NITROSAMINE, 3817-11-6, Carcinogen: PHENACETIN, 62-44-2, N-BUTYL-N-(4-HYDROXYBUTYL)NITROSAMINE, 3817-11-6, Dose [Inhibitor]: 0, Route [Inhibitor]: SUBCUTANEOUS, Species: MOUSE, Strain/Sex: NON/SHI/MALE, Promoter: NONE USED

## CC[C@H](C)[C@@H](NC(=O)[C@@H](CCC(=O)O)NC(=O)[C@@H](CO)NC(=O)[C@@H](CO)NC(=O)[C@H](NC(=O)[C@@H](CC(=O)O)NC(=O)[C@H](NC(=O)[C@H](C)NC(=O)[C@H](C)NC(=O)[C@@H](CC(=O)O)NC(=O)[C@@H](CO)NC(=O)[C@H](N)CS)C(C)C)C(C)C)C(=O)N[C@@H](C(=O)N[C@@H](C(=O)N[C@H](CCCCN)C(=O)N[C@H](CC(=O)O)C(=O)N[C@H](CC(C)C)C(=O)N[C@H](CCCCN)C(=O)N[C@H](CCC(=O)O)C(=O)N[C@H](CCCCN)C(=O)N[C@H](CCCCN)C(=O)N[C@H](CCC(=O)O)C(=O)N[C@@H](C(=O)N[C@@H](C(=O)N[C@H](CCC(=O)O)C(=O)N[C@H](CCC(=O)O)C(=O)N[C@@H](C)C(=O)N[C@H](CCC(=O)O)C(=O)O)C(C)C)C(C)C)C(C)C)[C@H](C)O
60 UG IN 0.1 ML SALINE 2/WK FOR 6 WK CONCURRENTLY WITH BBN TREATMENT (STUDY DURATION: 34 WK), Target Tissue: Type of Lesion: URINARY BLADDER: CARCINOMA, Dose [Carcinogen]: 2% PHENACETIN IN DIET FOR 12 WK FOLLOWED BY 0.05% BBN IN DRINKING WATER FOR 6 WK
  tumour outcome (control, treated, inhibition, significance): 7/20 (35%), 5/19 (26%), 26%, not significant
60 UG IN 0.1 ML SALINE 2/WK FOR 16 WK BEGINNING POST CARCINOGEN TREATMENT (STUDY DURATION: 30 WK), Target Tissue: Type of Lesion: RENAL PELVIS: CARCINOMA, Dose [Carcinogen]: 2% PHENACETIN IN DIET FOR 8 WK FOLLOWED BY 0.05% BBN IN DRINKING WATER FOR 6 WK
  tumour outcome (control, treated, inhibition, significance): 2/11 (18%), 8/12 (67%), -272%, not significant
60 UG IN 0.1 ML SALINE 2/WK FOR 16 WK BEGINNING POST CARCINOGEN TREATMENT (STUDY DURATION: 30 WK), Target Tissue: Type of Lesion: URINARY BLADDER: CARCINOMA, Dose [Carcinogen]: 2% PHENACETIN IN DIET FOR 8 WK FOLLOWED BY 0.05% BBN IN DRINKING WATER FOR 6 WK
  tumour outcome (control, treated, inhibition, significance): 2/11 (18%), 3/12 (25%), -39%, not significant
60 UG IN 0.1 ML SALINE 2/WK FOR 16 WK BEGINNING POST CARCINOGEN TREATMENT (STUDY DURATION: 34 WK), Target Tissue: Type of Lesion: RENAL PELVIS: CARCINOMA, Dose [Carcinogen]: 2% PHENACETIN IN DIET FOR 12 WK FOLLOWED BY 0.05% BBN IN DRINKING WATER FOR 6 WK
  tumour outcome (control, treated, inhibition, significance): 9/20 (45%), 10/18 (56%), -24%, not significant
60 UG IN 0.1 ML SALINE 2/WK FOR 16 WK BEGINNING POST CARCINOGEN TREATMENT (STUDY DURATION: 34 WK), Target Tissue: Type of Lesion: URINARY BLADDER: CARCINOMA, Dose [Carcinogen]: 2% PHENACETIN IN DIET FOR 12 WK FOLLOWED BY 0.05% BBN IN DRINKING WATER FOR 6 WK
  tumour outcome (control, treated, inhibition, significance): 7/20 (35%), 4/18 (22%), 37%, not significant
60 UG IN 0.1 ML SALINE 2/WK FOR 22 WK BEGINNING POST PHENACETIN TREATMENT (STUDY DURATION: 30 WK), Target Tissue: Type of Lesion: RENAL PELVIS: CARCINOMA, Dose [Carcinogen]: 2% PHENACETIN IN DIET FOR 8 WK FOLLOWED BY 0.05% BBN IN DRINKING WATER FOR 6 WK
  tumour outcome (control, treated, inhibition, significance): 2/11 (18%), 2/12 (17%), 5%, not significant
60 UG IN 0.1 ML SALINE 2/WK FOR 22 WK BEGINNING POST PHENACETIN TREATMENT (STUDY DURATION: 30 WK), Target Tissue: Type of Lesion: URINARY BLADDER: CARCINOMA, Dose [Carcinogen]: 2% PHENACETIN IN DIET FOR 8 WK FOLLOWED BY 0.05% BBN IN DRINKING WATER FOR 6 WK
  tumour outcome (control, treated, inhibition, significance): 2/11 (18%), 1/12 (8%), 56%, not significant
60 UG IN 0.1 ML SALINE 2/WK FOR 22 WK BEGINNING POST PHENACETIN TREATMENT (STUDY DURATION: 34 WK), Target Tissue: Type of Lesion: RENAL PELVIS: CARCINOMA, Dose [Carcinogen]: 2% PHENACETIN IN DIET FOR 12 WK FOLLOWED BY 0.05% BBN IN DRINKING WATER FOR 6 WK
  tumour outcome (control, treated, inhibition, significance): 9/20 (45%), 13/19 (68%), -51%, not significant
60 UG IN 0.1 ML SALINE 2/WK FOR 22 WK BEGINNING POST PHENACETIN TREATMENT (STUDY DURATION:34 WK), Target Tissue: Type of Lesion: URINARY BLADDER: CARCINOMA, Dose [Carcinogen]: 2% PHENACETIN IN DIET FOR 12 WK FOLLOWED BY 0.05% BBN IN DRINKING WATER FOR 6 WK
  tumour outcome (control, treated, inhibition, significance): 7/20 (35%), 7/19 (37%), -6%, not significant
